Measured values: patent US12121521B2, “Uses of salt-inducible kinase (SIK) inhibitors for treating osteoporosis” (The General Hospital Corporation, priority 2016, dated 2024)

Legend:
Ocy454 cells [1] = assay: Immunoblotting of Ocy454 cell lysates (HDAC4/5, CRTC2, SIK2 phosphorylation and localisation); assay type: cell-based, mouse
Ocy454 cells [2] = assay: Gene expression in Ocy454 cells by RT-qPCR; assay type: cell-based, mouse
male mice = assay: YKL-05-099 once daily for 2 weeks: bone RNA, static and dynamic histomorphometry; assay type: in vivo, mouse; conditions: 6 mg/kg once daily i.p.
Method: Whole cell extracts were generated, followed by immunoblotting. […] RNA was prepared, and gene expression analyzed by RT-qPCR. […] 2 hours later, animals were sacrificed, RNA was prepared from femurs, and gene expression analyzed by RT-qPCR. […] Animals were sacrificed 2 hours after the final dose, and RNA from femurs analyzed for the indicated genes. BGLAP encodes osteocalcin. * indicated p<0.01 versus vehicle, # indicates p<0.05 versus vehicle. (FIGS. 8E to 8K), static and dynamic histomorphometry were performed on the tibia from the same mice as in FIG. 8D. Each data point represents an individual mouse, p values for each difference are shown on the graph. (FIG. 8L) Representative photomicrograph showing increased osteoblasts on cancellous bone surfaces from YKL-05-099-treated mice.
To determine effects on bone mass and cellular composition/activity, static and dynamic histomorphometry were performed. […] Other than the observed reduction in osteoclast numbers, these findings are quite similar to the effects of once daily PTH treatment.
All animals were housed in the Center for Comparative Medicine at the Massachusetts General Hospital, and all experiments were approved by the hospital's Subcommittee on Research Animal Care. HDAC5-null mice (70) and HDAC4 f/f mice (71) were generously provided by Dr. Eric Olson (University of Texas Southwestern Medical Center, Dallas, TX) and were backcrossed to C57B/6 mice for at least 6 generations. DMP1-Cre mice (27) were generously provided by Dr. Jian (Jerry) Feng (Texas A&M University, Baylor College of Dentistry, Dallas, TX). “DKO” HDAC4/5 mice were of the following genotype: HDAC4f/f; HDAC5−/−; DMP1-Cre. SIK2 f/f mice were as described (40), and were bred to DMP1-Cre animals to generate SIK2^OcyKO mice. ES cells carrying the targeted SOST allele Sost^tm1(KOMP)Vleg, in which the SOST coding sequence has been replaced by LacZ and floxed Neo cassette, were obtained from the Knockout Mouse Project (KOMP) Repository. Clone VG10069-BE8 was injected into blastocysts, and the resulting SOST+/− mice were crossed to HDAC5 mutant animals to generate compound heterozygous mice. In all instances, skeletal phenotypes were evaluated in 8 week-old sex-matched littermates. For acute effects of PTH on bone gene expression, animals were treated with PTH (1-34, 300 μg/kg, subcutaneous administration) and then sacrificed 90 minutes later. For acute effects of YKL-05-093 on bone gene expression, animals were treated with the indicated doses of compound (dissolved in PBS+25 mM HCl) or solvent via intraperitoneal injections, and sacrificed 2 hours later. […] For in vivo sclerostin antibody treatment, mice were treated twice weekly with sclerostin antibody (50 mg/kg, subcutaneous administration, generously provided by Dr. Michael Ominsky, Amgen) for 6 weeks. Power calculations were performed based on pilot experiments in which standard deviations and magnitudes of effect sizes were estimated. For experiments in which mice were treated with either vehicle or PTH (or YKL-05-093), mice were assigned to alternating treatment groups in consecutive order.
Right tibia from 8-week-old mice were subjected to bone histomorphometric analysis. The mice were injected 20 mg/kg body weight of calcein and 40 mg/kg body weight of demeclocycline on 7 and 2 days before necropsy, respectively. The tibia was dissected and fixed in 70% ethanol for 3 days. Fixed bones were dehydrated in graded ethanol, then infiltrated and embedded in methylmethacrylate without demineralization. Undecalcified 4-μm-thick longitudinal sections were obtained using microtome (RM2255, Leica Biosystems., IL, USA). Sections were left unstained for dynamic parameters measurement, and consecutive sections were stained with tartrate-resistant acid phosphatase and counterstained with toluidine blue for measurement of cellular parameters. […]

[3] = control vs SIK2/3 deficient cells, 0.5 μM, 4 hours
[4] = 1 μM, 4 hours, control vs shSIK2/3 cells, FIG. 8B

Question: With `COc1ccc(N2C(=O)N(c3c(C)cccc3C)Cc3cnc(Nc4ccc(C5CCN(C)CC5)c(OC)c4)nc32)c(OC)c1` [YKL-05-093] as the compound, how does the “SIK2 S358 phosphorylation” value (Ocy454 cells [1]; control and Gsα-deficient Ocy454 cells, 10 μM, 30 minutes) read?
Answer: The value was “did not increase SIK2 S358 phosphorylation”.

Question: What about the “HDAC4 S246 phosphorylation” value (Ocy454 cells [1]; osteocytes lacking SIK2 and SIK3, 10 μM for 45 minutes) of the same compound?
Answer: Its value is “did not decrease HDAC4 S246 phosphorylation”.

Question: What about the RANKL expression (Ocy454 cells [2]; FIG. 5E) of the same compound?
Answer: The RANKL expression was “RANKL up-regulation”.

Question: And the SOST expression (Ocy454 cells [2]; FIG. 5E)?
Answer: Its SOST expression is “rapid and potent SOST suppression”.

Question: And the RANKL expression (Ocy454 cells [2]; Gsα-deficient Ocy454, 0.5 μM)?
Answer: The RANKL expression was “RANKL up-regulation with effects similar to forskolin”.

Question: And the SOST expression (Ocy454 cells [2]; Gsα-deficient Ocy454, 0.5 μM)?
Answer: The SOST expression was “SOST suppression”.

Question: And the “stimulation of RANKL expression” value (Ocy454 cells [2]; cells lacking CRTC2, PTH 1 nM or YKL-05-093 0.5 μM, 4 hours)?
Answer: The value was “abrogated”.

Question: And the “genes measured with SIK2/3-dependent regulation” value (Ocy454 cells [2]; [3])?
Answer: Its value is 13/19.

Question: And the “genes measured with regulation independent of the presence of SIK2/3” value (Ocy454 cells [2]; [3])?
Answer: The value was 6/19.

Question: What about the SOST expression (Ocy454 cells [2]; osteocytes lacking SIK2 and SIK3, 0.5 μM, 4 hours) of the same compound?
Answer: The SOST expression was “did not decrease HDAC4 S246 phosphorylation or cause SOST suppression”.

Question: What does the source list for `COc1ccc(N2C(=O)N(c3c(C)cccc3Cl)Cc3cnc(Nc4ccc(C5CCN(C)CC5)cc4OC)nc32)nc1` [YKL-05-099]?
Answer: HDAC4 S246 phosphorylation (Ocy454 cells [1]; indicated doses, 20 minutes, FIG. 8A): dose-dependent reduction in HDAC4 S246 phosphorylation; RANKL expression (Ocy454 cells [2]; [4]): RANKL up-regulation in a SIK2/3-dependent manner; SOST expression (Ocy454 cells [2]; [4]): SOST down-regulation; RANKL levels in bone RNA (male mice): increased; SOST in bone RNA (male mice): trend towards reduced SOST; bone formation rate (male mice): increased bone formation rate; cancellous bone mass (male mice): increased cancellous bone mass; matrix apposition rate (male mice): trend towards increased matrix apposition rate; mineralizing surface (male mice): increased mineralizing surface; osteoblast marker genes (osteocalcin and COL1A1) (male mice): significantly increased; osteoblast numbers (male mice): increased osteoblast numbers; osteoclast numbers (male mice): reduced osteoclast numbers; osteoid surface (male mice): increased
